# Experimental data published in publication PMC6271950, “LC-MS/MS Determination and Pharmacokinetic Study of Dehydrocorydaline in Rat Plasma after Oral Administration of Dehydrocorydaline and Corydalis yanhusuo Extract” (Molecules, 2014).
# How the values were obtained:
# [1] = Plasma pharmacokinetics of DHC after oral administration of pure DHC or EFY; format: in vivo, Sprague-Dawley rats; settings: Sprague-Dawley, DHC in rat plasma, equivalent dose of 97.5 mg/kg DHC (EFY 483 mg/kg), n = 5, mean ± SD
# Description: DHC is the most abundant quaternary protoberberine-type alkaloid in EFY and has clear cardiovascular pharmacological activity. A fully validated LC-ESI-MS/MS method was developed and was successfully applied to a pharmacokinetic study of DHC when given in the two different dosage forms (EFY and pure compound) via oral administration in rats. The doses of DHC and EFY were 97.5 mg/kg and 483 mg/kg (equivalent to 97.5 mg/kg DHC), respectively. The mean plasma concentration-time profiles of DHC after the two doses are illustrated in Figure 5 and the estimated pharmacokinetic parameters are presented in Table 5.
# For pharmacokinetics study, the rats were divided into two groups (n = 5 per group). Doses of 97.5 mg/kg of DHC or 483 mg/kg of EFY (equivalent to 97.5 mg/kg DHC, 20.19% DHC in EFY) were all gavage administrated. Blood samples (500 μL) were withdrawn from the oculi chorioideae vein into heparinized tubes before dosing and subsequently at 15, 30 and 45 min and then at 1, 2, 4, 6, 8, 12 and 24 h following initial administration. After 1 h and 8 h, 2 mL of normal saline was injected into the caudal vein to compensate for blood loss. After centrifuging at 4000 rpm for 10 min, plasma samples were obtained and frozen at −20 °C until analysis.
# A 200 μL aliquot of plasma was vortex mixed for 3 min with 200 μL of water and 50 μL of IS (800 ng/mL). After centrifugation at 9000 rpm for 10 min, all the supernatant was loaded onto an Oasis HLB cartridge (Waters, Milford, MA, USA), which was pre-conditioned with 1 mL of methanol followed by 1 mL of deionized water. The loaded-cartridge was sequentially washed with 1 mL of water and 1 mL of 20% methanol. The analytes were then eluted with 1 mL of methanol in water containing 2% formic acid. The collected eluate was evaporated to dryness at 40 °C under a gentle stream of nitrogen. The residue was reconstituted in 150 μL of 10% acetonitrile, and 30 μL of the resulting sample was injected into the LC-MS/MS system for assay. Bile and urine samples were all processed in a similar manner as the plasma samples.
# An Agilent 1100 system (Palo Alto, CA, USA) equipped with a vacuum degasser, a quaternary pump, and an auto-sampler were used. Chromatographic separation was achieved on an Atlantis T3 column (100 mm × 2.1 mm, 5 μm; Waters, Milford, MA, USA), which was eluted with a mobile phase of acetonitrile and water (containing 0.8% formic acid and 10 mM ammonium acetate) (28:72, v/v). The mobile phase was delivered at a flow-rate of 0.25 mL/min and 40% of the eluate was introduced into an API 3000 triple-quadrupole mass spectrometer (Applied Biosystems MDS SCIEX, Concord, ON, Canada) equipped with a TurboIonSpray electrospray ionization (ESI) source. Detection was performed using positive-ion electrospray ionization in multiple reaction monitoring (MRM) modes. The transitions from molecular ion to dominant product ion m/z 366→351[M−CH3] and m/z 348→332[M−CH3−H] [26, 27, 28] were monitored for DHC and IS, respectively. The optimized working parameters for mass detection were as follows. The nebulizer, curtain, and collision-activated dissociation gases were set at 11, 7 and 11 (instrument units), respectively. The TurboIonSpray voltage and temperature were set at 4.5 kV and 400 °C, respectively. All data acquisition was performed using Analyst software (v1.4, AB MDS SCIEX).
# Pharmacokinetic parameters were established from the plasma concentration–time data using non-compartmental analysis. The terminal elimination rate constant (Ke) was determined by linear regression of the terminal portion of the plasma concentration-time data. The elimination half-life (t1/2) was calculated using the expression: t1/2 = ln2/Ke(2) The area under the curve (AUC) for the plasma concentration-time trace from zero to the last plasma drug concentration (AUC0–t) was calculated using the trapezoidal rule. […]
# [2] = Biliary cumulative excretion of unchanged DHC after a single oral dose; format: in vivo, Sprague-Dawley rats; settings: rat, single oral dose 97.5 mg/kg
# Description: (§1) The cumulative excretion of DHC in bile and urine after a single i.g. dose of DHC (97.5 mg/kg) was determined. […] However, the urinary cumulative excretion of DHC was little. The mean accumulated amount of DHC in urine over 96 h was 0.17% ± 0.13% of dose. […] There might be a huge “first pass” effect in liver after oral administration and account for the trace plasma concentration.
# For biliary excretion study, four rats were light anesthetized by ether and a PE-10 cannula was implanted into the bile duct to collect bile. A single dose of DHC was administered as described above. Bile samples were collected at 0–2, 2−4, 4−6, 6−8, 8−10, 10−24 and 24−48 h post-dosing and kept at −20 °C after the volume of each collection was recorded.
# (§2) A 200 μL aliquot of plasma was vortex mixed for 3 min with 200 μL of water and 50 μL of IS (800 ng/mL). After centrifugation at 9000 rpm for 10 min, all the supernatant was loaded onto an Oasis HLB cartridge (Waters, Milford, MA, USA), which was pre-conditioned with 1 mL of methanol followed by 1 mL of deionized water. The loaded-cartridge was sequentially washed with 1 mL of water and 1 mL of 20% methanol. […]
# (§3) An Agilent 1100 system (Palo Alto, CA, USA) equipped with a vacuum degasser, a quaternary pump, and an auto-sampler were used. […] [26, 27, 28] were monitored for DHC and IS, respectively. […]
# [3] = Urinary cumulative excretion of DHC after a single oral dose; format: in vivo, Sprague-Dawley rats; settings: rat, single oral dose 97.5 mg/kg, over 96 h
# Description: as §1
# For urinary excretion study, four rats were used. DHC was administered as described above. The animals were housed in stainless steel metabolic cages with free access to tap water. Urine was collected at 0–4, 4–8, 8–12, 12–24, 24–36, 36–60, 60–84 and 84–96 h post-dosing and kept at −20 °C after the volume of each collection was recorded.
# as §2, with “methanol. The analytes were then eluted with 1 mL of methanol in water containing 2% formic acid.” for “methanol.”
# as §3
# [4] = Stability of DHC in rat plasma (QC samples); format: in vitro ADME; settings: for Cdec (mean ± S.D.): n = 6
# Description: This is evidenced by the fact that the responses varied no more than ±10% over 24 h at the QC concentrations. After storage at ambient temperature for 12 h, the concentration of DHC in the plasma deviated less than ±13% from those in freshly-spiked plasma (Table 3).
# The stability of DHC in rat plasma was evaluated under conditions that mimicked those likely to be encountered during sample storage and analytical processing. Six replicates of QC samples were analyzed for DHC. The QC samples were frozen and stored at −20 °C for a week. The concentration variation of the DHC in the prepared QC samples was detected after (i) three cycles of freezing and thawing, (ii) placement in an auto-sampler at 4 °C for 24 h, and (iii) storing at ambient temperature for 12 h.
# [5] = test system: cytochrome P450 3A4; design: method as in PMID 16133554; settings: cited from earlier work
# [6] = design: method as in PMID 16956957; settings: 1 h after oral administration, in situ intestinal loop; cited from earlier work
# [7] = test system: P-glycoprotein; design: method as in PMID 12530470, PMID 12434406; settings: efflux in Caco-2 cells and the liver; cited from earlier work
# [8] = after three freeze-thaw cycles, Cnom 1.25 ng/mL
# [9] = after three freeze-thaw cycles, Cnom 25 ng/mL
# [10] = after three freeze-thaw cycles, Cnom 250 ng/mL
# [11] = postpreparative stability (24 h, auto-sampler 4 °C), Cnom 1.25 ng/mL
# [12] = postpreparative stability (24 h, auto-sampler 4 °C), Cnom 25 ng/mL
# [13] = postpreparative stability (24 h, auto-sampler 4 °C), Cnom 250 ng/mL
# [14] = short-term temperature stability (12 h, ambient), Cnom 1.25 ng/mL
# [15] = short-term temperature stability (12 h, ambient), Cnom 25 ng/mL
# [16] = short-term temperature stability (12 h, ambient), Cnom 250 ng/mL
smiles,measurement,setting,value
"COc1cc2c(cc1OC)-c1c(C)c3ccc(OC)c(OC)c3c[n+]1CC2 [DHC, dehydrocorydaline]",AUC(0-inf),[1],59.1 ± 11.5 ng·h/mL
same,AUC(0-t),[1],52.4 ± 12.8 ng·h/mL
same,Cmax,[1],9.4 ± 4.18 ng/mL
same,Tmax,[1],1 h
same,half-life,[1],7.93 ± 1.34 h
same,k el,[1]; read-out: Ke (converted),2.5e-05 s⁻¹
same,mean accumulated amount of DHC in bile,[2]; in 2 h,12.2% ± 7.38%
same,total biliary excretion of unchanged DHC,[2]; up to 48 h,60.04% ± 24.66%
same,mean accumulated amount of DHC in urine,[3],0.17% ± 0.13%
same,variation in the concentration from nominal concentration,"[4]; after three cycles of freezing and thawing, rat plasma",≤ 15%
same,Relative Error,[4]; [8],−0.27%
same,Cdec (mean ± S.D.),[4]; [8],1.25 ± 0.1 ng/mL
same,Relative Error,[4]; [9],10%
same,Cdec (mean ± S.D.),[4]; [9],27.5 ± 0.87 ng/mL
same,Relative Error,[4]; [10],9.07%
same,Cdec (mean ± S.D.),[4]; [10],272.67 ± 8.14 ng/mL
same,Relative Error,[4]; [11],−5.47%
same,Cdec (mean ± S.D.),[4]; [11],1.18 ± 0.06 ng/mL
same,Relative Error,[4]; [12],4.8%
same,Cdec (mean ± S.D.),[4]; [12],26.2 ± 0.86 ng/mL
same,Relative Error,[4]; [13],8.14%
same,Cdec (mean ± S.D.),[4]; [13],270.33 ± 9.42 ng/mL
same,variation of responses,"[4]; processed samples in auto-sampler at 4 °C over 24 h, QC concentrations",≤ 10%
same,Relative Error,[4]; [14],−3.87%
same,Cdec (mean ± S.D.),[4]; [14],1.2 ± 0.1 ng/mL
same,Relative Error,[4]; [15],−12.13%
same,Cdec (mean ± S.D.),[4]; [15],21.97 ± 0.51 ng/mL
same,Relative Error,[4]; [16],−7.73%
same,Cdec (mean ± S.D.),[4]; [16],230.67 ± 15.96 ng/mL
same,deviation of concentration from freshly-spiked plasma,"[4]; storage at ambient temperature for 12 h, rat plasma",< 13%
COc1ccc2cc3[n+](cc2c1OC)CCc1cc2c(cc1-3)OCO2 [berberine],cytochrome P450 3A4 inhibition,[5],weak cytochrome P450 3A4 inhibitor
same,absorbed amount,[6],33.6 % of the given dose
same,P-glycoprotein substrate,[7],substrate of P-glycoprotein
